Laboratory results: the NIST ThermoML archive (doi:10.1016/j.jct.2013.09.017)

Assay: xn = mol fraction of the nth substance listed
Details: 101 kPa, Liquid; for viscosity: Capillary tube (Ostwald / Ubbelohde) method; for mass density: Vibrating tube method

CCCCCCCCN(CCCCCCCC)CCCCCCCC [trioctylamine] + CCCCCCC
Details	mass density, 283.15 K [kg/m3]	mass density, 293.15 K [kg/m3]	mass density, 303.15 K [kg/m3]	viscosity, 283.15 K [mPa·s]	viscosity, 293.15 K [mPa·s]	viscosity, 303.15 K [mPa·s]
x1 = 0.0102	696.37	688.04	679.6	0.494	0.44	0.394
x1 = 0.103	726.07	718.22	710.29	0.856	0.738	0.642
x1 = 0.2636	759.83	752.47	745.07	1.827	1.51	1.269
x1 = 0.3223	768.63	761.41	754.13	2.321	1.899	1.569
x1 = 0.409	779.4	772.31	765.19	3.241	2.57	2.055
x1 = 0.5079	789.24	782.28	775.31	4.499	3.464	2.734
x1 = 0.5997	796.55	789.72	782.85	5.814	4.377	3.374
x1 = 0.7019	803.32	796.55	789.77	7.438	5.434	4.107
x1 = 0.8063	808.97	802.27	795.57	9.477	6.792	5
x1 = 0.906	813.43	806.79	800.15	11.64	8.231	5.972
x1 = 1	817.08	810.48	803.88	14.25	9.957	7.114
